# Read-outs that look alike come from different tables or passages of the source. Marks after values point to notes of the source that are not given here. Square brackets hold non-standard residues; d marks the D form. Peptide text beside a SMILES is read from it.
# Assays:
# in vitro [1] = conditions: African green monkey
# in vitro [2] = conditions: dog
# [3] = test system: influenza virus A/Puerto Rico/8/34 (H1N1); conditions: for Virus titer PR8 (influenza virus): virus control 5.5
# [4] = application to skin or mucosae at any concentration; cited from earlier work
# [5] = test system: influenza virus A/California/04/2009; type: in vivo, mice
# human adenovirus 5 = conditions: for Virus titer Ad5 (adenovirus): virus control 4.5
# influenza = type: in vivo, human; conditions: Example 9, 4 relatives; 0.02% solution inhaled once a day, 1 mg/day; 7 days
# influenza virus A = type: in vivo, human
# [6] = Effect of low pH acetate buffer on antiviral and immunotropic activity; conditions: low pH acetate-based buffer solution; nose, nasopharynx, oropharynx, oral cavity or sublingual
# Description: The preferred type of buffer salts is acetate buffer, which contains sodium acetate and acetic acid, with a preferred pH value of 4.0-5.5. Citrate buffer can also be used. […] Additionally, a physiologically active buffer on the basis of sodium hydrogen phosphate dihydrate and sodium dihydrogen phosphate dihydrate can be used; however, this buffer is not sufficiently efficient in the pH range from 4.0 to 5.5 in terms of its buffer capacity.
# [7] = in vivo; cited from earlier work
# [8] = Clinical testing of inhalation: cough and shortness of breath; type: in vivo, human
# Description: Mu and delta receptors are found in the cough centre of the medulla, and systemic application of […] of these receptors inhibits the cough reflex. This usually also affects other organs and zones of the brain that contain opioid receptors. Additionally, since receptors of this group are found in peripheral neural pathways, Dalargin can also affect the conduction of signals along these neural pathways. Dalargin inhalation mostly produces local effects of short-lived metabolites of the peptide on peripheral opioid receptors, which manifests itself in reduced response of receptor cells to stimulation and reduced intensity of the signal transmitted to the cough centre. […] A certain local analgesic effect also improves the overall condition of the patient. […] This, in turn, alleviates the irritation of the respiratory tract, reduces the loss of the inhaled product due to coughing and improves the patients' quality of life.
# Shortness of breath is one of the most common symptoms of VRIs. The patient is often unable to perform the most basic actions without experiencing shortness of breath, panting, and a sensation of lacking air. Descriptions of various methods of the treatment of shortness of breath report positive effects of systemic administration of certain opioid receptor agonists. […] Systemically administered opioids are also recommended for treating shortness of breath in such patients, but side effects may limit their use. Despite the positive effect, uses of such therapies are severely limited due to typical side effects and restrictions on the sales of opioid drugs. Inhalation of Dalargin is additionally associated with improved quality of respiration. […] Unlike classical opioids, these metabolites are short-lived and only act locally, in the zone where the inhaled aerosol is deposited in the lungs, predominantly in the larynx, bronchi and trachea.
# [9] = Group 4: nasally once a day 0.2 mg/kg, concentration 0.08%
# [10] = Group 4: nasally once a day 0.2 mg/kg, concentration 0.08%, 30 animals
# [11] = Group 5: nasally and posterior pharyngeal wall (PS) once daily 0.5 mg/kg, concentration 0.1%
# [12] = Group 5: nasally and posterior pharyngeal wall (PS) once daily 0.5 mg/kg, concentration 0.1%, 30 animals
# [13] = Group 6: inhalation of 1% solution 40 min once a day, 0.5 mg/kg
# [14] = Group 6: inhalation of 1% solution 40 min once a day, 0.5 mg/kg, 30 animals
# [15] = Group 7: inhalation of 3% solution 45 min once a day, 1.74 mg/kg
# [16] = Group 7: inhalation of 3% solution 45 min once a day, 1.74 mg/kg, 30 animals
# [17] = Group 9: inhalation of 3% solution 45 min twice a day, prophylactic only
# [18] = Group 9: inhalation of 3% solution 45 min twice a day, prophylactic only, 30 animals
# [19] = Group 10: nasally + pharyngeal spray (PS) 0.5 mg/kg once a day, prophylactic only
# [20] = Group 10: nasally + pharyngeal spray (PS) 0.5 mg/kg once a day, prophylactic only, 30 animals
# [21] = Example 10, patient V, A/California/07/2009 (H1N1), 0.1% solution inhaled twice a day, 4 mg/day, with Oseltamivir
compound,measurement,setting,value
"CC(C)C[C@H](NC(=O)[C@H](Cc1ccccc1)NC(=O)CNC(=O)[C@@H](C)NC(=O)[C@@H](N)Cc1ccc(O)cc1)C(=O)N[C@@H](CCCNC(=N)N)C(=O)O [Dalargin, tyrosyl-D-alanyl-glycyl-phenylalanyl-leucyl-arginine diacetate] (H-Y[dA]GFLR-OH)",CC50,in vitro [1],≥ 30 µg/mL
same,CC50,in vitro [2],≥ 30 µg/mL
same,Virus titer PR8 (influenza virus),[3]; 0.4 μg/mL,5.5 lg TCID50/0.1 mL
same,Virus titer PR8 (influenza virus),[3]; 1.1 μg/mL,5.0 lg TCID50/0.1 mL
same,Virus titer PR8 (influenza virus),[3]; 3.3 μg/mL,5.0 lg TCID50/0.1 mL
same,Virus titer PR8 (influenza virus),[3]; 10 μg/mL,4.5 lg TCID50/0.1 mL
same,Virus titer PR8 (influenza virus),[3]; 30 μg/mL,4.0 lg TCID50/0.1 mL
same,SI,"[3]; CC50/IC50, PR8 (influenza virus)",>37.5
same,IC50,"[3]; PR8 (influenza virus), MDCK",0.8 µg/mL
same,Antiviral properties (in words),"[3]; influenza virus, MDCK",dose-dependent reduction of the infectious activity
same,Local irritation,[4],does not produce local irritation
same,"Mortality, %",[5]; [9],56.67%
same,"Protective index, %",[5]; [9],41.38%
same,Mortality by day 5,[5]; [10],2
same,Mortality by day 6,[5]; [10],4
same,Mortality by day 7,[5]; [10],9
same,Mortality by day 9,[5]; [10],1
same,Mortality by day 11,[5]; [10],1
same,Residue,[5]; [10],13
same,"Mortality, %",[5]; [11],40.00%
same,"Protective index, %",[5]; [11],58.62%
same,Mortality by day 6,[5]; [12],1
same,Mortality by day 7,[5]; [12],2
same,Mortality by day 8,[5]; [12],3
same,Mortality by day 9,[5]; [12],5
same,Mortality by day 10,[5]; [12],1
same,Residue,[5]; [12],18
same,"Mortality, %",[5]; [13],6.67%**
same,"Protective index, %",[5]; [13],93.10%
same,Mortality by day 7,[5]; [14],1
same,Mortality by day 8,[5]; [14],1
same,Residue,[5]; [14],28
same,"Mortality, %",[5]; [15],10.00%**
same,"Protective index, %",[5]; [15],89.66%
same,Mortality by day 7,[5]; [16],1
same,Mortality by day 8,[5]; [16],1
same,Mortality by day 9,[5]; [16],1
same,Residue,[5]; [16],27
same,"Mortality, %",[5]; [17],30.00%
same,"Protective index, %",[5]; [17],68.97%
same,Mortality by day 6,[5]; [18],2
same,Mortality by day 7,[5]; [18],3
same,Mortality by day 8,[5]; [18],2
same,Mortality by day 9,[5]; [18],2
same,Residue,[5]; [18],21
same,"Mortality, %",[5]; [19],46.67%
same,"Protective index, %",[5]; [19],51.72%
same,Mortality by day 5,[5]; [20],2
same,Mortality by day 6,[5]; [20],4
same,Mortality by day 7,[5]; [20],2
same,Mortality by day 8,[5]; [20],3
same,Mortality by day 9,[5]; [20],2
same,Mortality by day 10,[5]; [20],1
same,Residue,[5]; [20],16
same,"Efficacy compared with other antiviral drugs (Ingavirin, Arbidol)","[5]; administered by inhalation, prevention of influenza pneumonia",superior to other antiviral drugs
same,"Protective effect against infection, share of animals","[5]; preventive administration, depending on the route of administration",50-70%
same,IC50,human adenovirus 5,2.5 µg/mL
same,Virus titer Ad5 (adenovirus),human adenovirus 5; 0.4 μg/mL,4.5 lg TCID50/0.1 mL
same,Virus titer Ad5 (adenovirus),human adenovirus 5; 1.1 μg/mL,4.5 lg TCID50/0.1 mL
same,Virus titer Ad5 (adenovirus),human adenovirus 5; 3.3 μg/mL,4.0 lg TCID50/0.1 mL
same,Virus titer Ad5 (adenovirus),human adenovirus 5; 10 μg/mL,4.0 lg TCID50/0.1 mL
same,Virus titer Ad5 (adenovirus),human adenovirus 5; 30 μg/mL,3.5 lg TCID50/0.1 mL
same,SI,"human adenovirus 5; CC50/IC50, Ad5 (adenovirus)",12
same,Antiviral properties (in words),"human adenovirus 5; adenovirus, Vero",dose-dependent reduction of the infectious activity
same,Signs or symptoms of influenza in household contacts,influenza,"None of the relatives of patient V who were in contact with them exhibited catarrhal signs, hyperthermia or other signs or symptoms of influenza"
same,"Complete resolution of symptoms, day after start of therapy","influenza virus A; Example 8, patient K, influenza pneumonia A/Aichi/2/68 (H3N2), 0.02% solution inhaled twice a day, 1 mg/day, with Oseltamivir 75 mg twice a day",7 days
same,Duration of fever,influenza virus A; [21],3 days
same,Duration of intoxication symptoms,influenza virus A; [21],2 days
same,Duration of the disease as a whole (complete resolution of symptoms),influenza virus A; [21],5 days
same,Fold higher specific antiviral and immunotropic activity,[6],2-4 times
same,LD50,[7],2500 mg/kg
same,Duration of reduced coughing severity,[8],2 to 4 h
same,Cough reported by patients,[8]; clinical testing,alleviation or elimination of cough
same,Shortness of breath,[8]; investigational clinical use,significantly reduced shortness of breath
